According to US11234979B2, “Heteroaryl compounds as muscarinic M1 receptor positive allosteric modulators” (SUVEN LIFE SCIENCES LIMITED, priority 2017, dated 2022):

Biological target: T1, recombinant human Muscarinic M1 receptor (Homo sapiens, UniProt P11229)
T1 construct: expressed in transfected cells
T1 sequence (P11229 1-460): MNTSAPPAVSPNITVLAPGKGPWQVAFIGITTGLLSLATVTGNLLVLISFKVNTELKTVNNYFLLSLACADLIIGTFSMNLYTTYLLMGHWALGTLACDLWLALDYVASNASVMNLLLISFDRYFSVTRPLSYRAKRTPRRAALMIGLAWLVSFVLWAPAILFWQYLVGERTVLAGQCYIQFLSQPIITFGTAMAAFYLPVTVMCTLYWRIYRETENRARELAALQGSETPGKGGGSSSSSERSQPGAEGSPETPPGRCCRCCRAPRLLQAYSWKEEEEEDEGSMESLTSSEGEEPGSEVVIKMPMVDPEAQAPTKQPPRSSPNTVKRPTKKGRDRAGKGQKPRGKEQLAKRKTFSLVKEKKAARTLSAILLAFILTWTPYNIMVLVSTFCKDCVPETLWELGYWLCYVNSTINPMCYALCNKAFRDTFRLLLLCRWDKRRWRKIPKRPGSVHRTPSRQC
Experiment: Allosteric potency EC50 for Muscarinic M1 receptor, CHO pCRE-Luc reporter assay with EC20 of acetylcholine
Type: cell-based
Conditions: CHO cells, in presence of EC20 of acetylcholine, 4 hours
Summary of the method: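 Stable CHO line expressing human M1 receptor with CRE-driven luciferase, serum-starved overnight, then exposed to increasing compound concentrations plus an EC20 of acetylcholine in OptiMEM for 4 hours at 37° C. Luciferase read after lysis, normalized to maximal acetylcholine response; EC50 is concentration giving 50% stimulation.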

Cn1cc(-c2ccc(Cc3cc(C(=O)N[C@H]4CCCC[C@@H]4O)n4ncccc34)cc2)cn1 [Example 32, N-(cis-1S,2S-2-Hydroxycyclohexyl)-5-[4-(1-methyl-1H-pyrazol-4-yl)-benzyl]-pyrrolo [1,2-b]pyridazine-7-carboxamide]
EC50: 66 nM
